The results in this text go back to PubChem BioAssay AID248 (DTP/NCI, 2004).

For this test, the system named is L1210 leukemia ip in BDF1 mice, survival T/C. The test can be described thus: NCI In Vivo Anticancer Drug Screen. Data for tumor model L1210 Leukemia (intraperitoneal) in B6D2F1 (BDF1) mice. To be noted: endpoint: mean survival time, higher = longer survival. In outline: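 Read-out is survival time, reported as the treated-group measurement over the vehicle-control measurement.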

Where [1] appears, read: dose: 100.0 mg/kg/injection, schedule: Q04DX003 (ip), vehicle: Klucel (hydroxypropylcellulose) (HPC).
Where [2] appears, read: dose: 200.0 mg/kg/injection, schedule: Q04DX003 (ip), vehicle: Klucel (hydroxypropylcellulose) (HPC).
Where [3] appears, read: dose: 400.0 mg/kg/injection, schedule: Q04DX003 (ip), vehicle: Klucel (hydroxypropylcellulose) (HPC).
The mark [4] stands for this setting: dose: 100.0 mg/kg/injection, schedule: Q01DX009 (ip), vehicle: saline.
Where [5] appears, read: dose: 100.0 mg/kg/injection, schedule: Q04DX003 (ip), vehicle: saline.
Where [6] appears, read: dose: 200.0 mg/kg/injection, schedule: Q01DX009 (ip), vehicle: saline.
The mark [7] stands for this setting: dose: 200.0 mg/kg/injection, schedule: Q04DX003 (ip), vehicle: saline.
Where [8] appears, read: dose: 400.0 mg/kg/injection, schedule: Q01DX009 (ip), vehicle: saline.
The mark [9] stands for this setting: dose: 100.0 mg/kg/injection, schedule: Q01DX001 (ip), vehicle: other.
Where [10] appears, read: dose: 200.0 mg/kg/injection, schedule: Q01DX001 (ip), vehicle: other.
Setting [11] is: dose: 400.0 mg/kg/injection, schedule: Q01DX001 (ip), vehicle: other.
Where [12] appears, read: dose: 100.0 mg/kg/injection, schedule: Q01DX001 (ip), vehicle: saline.
[13] abbreviates: dose: 200.0 mg/kg/injection, schedule: Q01DX001 (ip), vehicle: saline.
[14] abbreviates: dose: 400.0 mg/kg/injection, schedule: Q01DX001 (ip), vehicle: saline.
Setting [15] is: dose: 100.0 mg/kg/injection, schedule: Q01DX009 (ip), vehicle: Klucel (hydroxypropylcellulose) (HPC).
[16] abbreviates: dose: 200.0 mg/kg/injection, schedule: Q01DX009 (ip), vehicle: Klucel (hydroxypropylcellulose) (HPC).
Setting [17] is: dose: 400.0 mg/kg/injection, schedule: Q01DX009 (ip), vehicle: Klucel (hydroxypropylcellulose) (HPC).

“And” between values parts separate entries of the source, which are not always exact repeats. Equal entries are not always repeated. Inconclusive results and toxic doses are left out.

On to `O=C1CNc2ccccc2N1`, for which the T/C by setting is: under setting [1], 103 % of control; under setting [2], 92 % of control; under setting [3], 92 % of control.
As to `CNc1ccccc1C(=O)N/N=C/c1c(O)ccc2ccccc12`, the T/C by setting is: (dose: 100.0 mg/kg/injection, schedule: Q04DX002 (ip), vehicle: saline) 99 % of control; (dose: 200.0 mg/kg/injection, schedule: Q04DX002 (ip), vehicle: saline) 96 % of control; (dose: 400.0 mg/kg/injection, schedule: Q04DX002 (ip), vehicle: saline) 96 % of control.
For the compound `O=NN(CCCl)C(=O)N[C@H]1CCC[C@@H](O)C1`, the T/C runs as follows: (dose: 12.0 mg/kg/injection, schedule: Q01DX001 (ip), vehicle: saline with Tween-80) 176 % of control; (dose: 18.0 mg/kg/injection, schedule: Q01DX001 (ip), vehicle: saline with Tween-80) 306 % of control; (dose: 26.0 mg/kg/injection, schedule: Q01DX001 (ip), vehicle: saline with Tween-80) 468 % of control; (dose: 40.0 mg/kg/injection, schedule: Q01DX001 (ip), vehicle: saline with Tween-80) 468 % of control; (dose: 60.0 mg/kg/injection, schedule: Q01DX001 (ip), vehicle: saline with Tween-80) 382 % of control; (dose: 90.0 mg/kg/injection, schedule: Q01DX001 (ip), vehicle: saline with Tween-80) 86 % of control.
Regarding `CC(=O)Nc1ccc(C(=O)O)c([N+](=O)[O-])c1`, the T/C by setting is: under setting [4], 100 % of control; under setting [5], 104 % of control; under setting [6], 94 % of control; under setting [7], 104 % of control; under setting [8], 93 % of control; (dose: 400.0 mg/kg/injection, schedule: Q04DX003 (ip), vehicle: saline) 94 % of control.
As for `CC(CCN=Cc1ccccc1O)N=Cc1ccccc1O` (configuration not stated), the T/C is 107 % of control (dose: 50.0 mg/kg/injection, schedule: Q01DX001 (ip), vehicle: other); 89 % of control under setting [9]; 97 % of control under setting [10]; 95 % of control under setting [11].
For the compound `C(#[C][Sn]([c]1ccccc1)([c]1ccccc1)[c]1ccccc1)c1ccccc1`, the T/C reads like this: (dose: 25.0 mg/kg/injection, schedule: Q04DX002 (ip), vehicle: Klucel (hydroxypropylcellulose) (HPC)) 97 % of control; (dose: 50.0 mg/kg/injection, schedule: Q04DX002 (ip), vehicle: Klucel (hydroxypropylcellulose) (HPC)) 90 % of control.
Regarding `COc1ccc(Nc2cc(=O)[nH]c(N)n2)cc1`, the T/C (dose: 100.0 mg/kg/injection, schedule: Q01DX Z (ip), vehicle: methylcellulose (MC)) is 112 % of control and the T/C (dose: 200.0 mg/kg/injection, schedule: Q01DX Z (ip), vehicle: methylcellulose (MC)) is 108 % of control.
As to `CC(C)CNC(=O)Nc1ccc(Cl)c(Cl)c1`, the T/C under setting [12] was 97 % of control, the T/C under setting [13] is 95 % of control and the T/C under setting [14] is 95 % of control.
As to `C(=Nc1cnc2sccc2c1)c1ccccc1`, the T/C was 100 % of control under setting [1], 100 % of control under setting [2] and 94 % of control under setting [3].
On to `Cc1ccc(N)cc1Br`, for which the T/C by setting is: under setting [12], 102 % of control; under setting [4], 100 % of control; under setting [13], 94 % of control; under setting [6], 90 % of control; under setting [14], 94 % of control; under setting [8], 103 % of control.
Turning to `C=C1C(=O)OC2C1CCC(C)C1C=CC(=O)C12C` (configuration not stated), the T/C is 98 % of control (dose: 50.0 mg/kg/injection, schedule: Q01DX009 (ip), vehicle: saline); 96 % of control under setting [4]; 98 % of control under setting [6].
As to `CC(C)/C=N\NC(=O)c1ccc[n+](C)c1`, the T/C is, setting by setting: (dose: 50.0 mg/kg/injection, schedule: Q01DX009 (ip), vehicle: saline with Tween-80) 100 % of control; (dose: 100.0 mg/kg/injection, schedule: Q01DX009 (ip), vehicle: saline with Tween-80) 92 % of control.
As to `Cc1ccc(S(=O)(=O)Nc2cc(C)ccc2C)cc1`, the T/C (dose: 50.0 mg/kg/injection, schedule: Q01DX001 (ip), vehicle: carboxymethylcellulose (CMC)) was 93 % of control; the T/C (dose: 100.0 mg/kg/injection, schedule: Q01DX001 (ip), vehicle: carboxymethylcellulose (CMC)) is 95 % of control; the T/C (dose: 200.0 mg/kg/injection, schedule: Q01DX001 (ip), vehicle: carboxymethylcellulose (CMC)) is 104 % of control; the T/C (dose: 400.0 mg/kg/injection, schedule: Q01DX001 (ip), vehicle: carboxymethylcellulose (CMC)) was 88 % of control.
For the compound `O=C(O)c1c(Br)c(Br)c(Br)c(Br)c1C(=O)Nc1ccc(Cl)cc1C(F)(F)F`, the T/C under setting [15] was 101 % of control, the T/C under setting [16] is 112 % of control and the T/C under setting [17] is 102 % of control.
Take `NC(=O)c1c(Br)c(Br)c(Br)c(Br)c1C(=O)O` (tested in a mixture with another compound): the T/C runs as follows: (dose: 50.0 mg/kg/injection, schedule: Q04DX003 (ip), vehicle: saline with Tween-80) 96 % of control; (dose: 100.0 mg/kg/injection, schedule: Q04DX003 (ip), vehicle: saline with Tween-80) 91 % of control and 100 % of control and 90 % of control; (dose: 200.0 mg/kg/injection, schedule: Q04DX003 (ip), vehicle: saline with Tween-80) 93 % of control and 98 % of control; (dose: 400.0 mg/kg/injection, schedule: Q04DX003 (ip), vehicle: saline with Tween-80) 93 % of control and 90 % of control.
`CC/C(C)=N/Nc1ccc([N+](=O)[O-])cc1[N+](=O)[O-]`: the T/C reads like this: under setting [9], 94 % of control; under setting [10], 94 % of control; under setting [11], 97 % of control.
Regarding `Cc1ccc(S(=O)(=O)c2ccc(S(=O)(=O)c3ccccc3)cc2)cc1`, the T/C under setting [12] was 95 % of control and 92 % of control; the T/C under setting [13] is 97 % of control; the T/C under setting [14] is 105 % of control and 91 % of control.
Regarding `COc1ccc(Cl)cc1NC(=O)Nc1ccccc1`, the T/C reads like this: under setting [15], 87 % of control; under setting [1], 99 % of control; under setting [16], 94 % of control; under setting [2], 97 % of control; under setting [17], 89 % of control; under setting [3], 92 % of control.
Take `CC(=O)N(c1ccccn1)c1ccccn1`: the T/C was 106 % of control under setting [12], 97 % of control under setting [5], 104 % of control under setting [13] and 105 % of control under setting [7].
For the compound `CCCc1cc(CN2CCOCC2)c(O)c(CN2CCOCC2)c1O`, the T/C under setting [12] was 91 % of control, the T/C under setting [13] was 93 % of control and the T/C under setting [14] was 95 % of control.
Regarding `O=C(NC/C(Cl)=C/Cl)Oc1cccc2ccccc12`, the T/C was 107 % of control (dose: 75.0 mg/kg/injection, schedule: Q01DX009 (ip), vehicle: Klucel (hydroxypropylcellulose) (HPC)); 104 % of control (dose: 150.0 mg/kg/injection, schedule: Q01DX009 (ip), vehicle: Klucel (hydroxypropylcellulose) (HPC)); 98 % of control (dose: 300.0 mg/kg/injection, schedule: Q01DX009 (ip), vehicle: Klucel (hydroxypropylcellulose) (HPC)).
Consider `CN(C)NCCC#N`, for which the T/C was 118 % of control (dose: 66.0 mg/kg/injection, schedule: Q01DX009 (ip), vehicle: saline); 116 % of control (dose: 75.0 mg/kg/injection, schedule: Q01DX009 (ip), vehicle: saline); 98 % of control (dose: 100.0 mg/kg/injection, schedule: Q01DX009 (ip), vehicle: saline sonified); 116 % of control under setting [4]; 111 % of control (dose: 200.0 mg/kg/injection, schedule: Q01DX009 (ip), vehicle: saline sonified).
With `Cc1c([N+](=O)[O-])sc2ccccc12`, the T/C was 97 % of control under setting [12], 97 % of control under setting [13] and 90 % of control under setting [14].
With `COc1cc(NC(=O)c2ccc(C(=O)Nc3cc(OC)cc4cccnc34)cc2)c2ncccc2c1`, the T/C is 94 % of control under setting [12], 100 % of control under setting [13] and 103 % of control under setting [14].
